Assay type in all cases: cell-based, human
Series [1] relates to RPS27L. As to the kind of experiment: RPS27L gene silencing by RNA interference, RT-PCR. As to conditions: HCT116 cells transfected with siRNA, then VP16 (10 μM). The procedure:
(§1) The siRNA oligo targeting RPS27L (SEQ ID NO: 1: ggttgctacaagattacta was purchased from Proligo, and transfection was conducted using Lipofectamine 2000 (Invitrogen) according to the manufacturer's information. To generate stable knock-down cell lines, the siRNA sequences were cloned into the pSIREN-RetroQ retroviral expression vector (BD Bioscience) according to the manufacturer's instruction. Virally infected cells were selected in a medium containing 2 μg/ml puromycin and individual drug-resistant clones were collected, pooled and expanded.
(§2) All RT-PCR was performed using the Titanium One Step RT-PCR Kit (BD Clontech).

Series [2] relates to HCT116 cells. As to the kind of experiment: Cell cycle and apoptosis analysis by flow cytometry (sub-G1 DNA content). As to the method: (§3) Cells cycle analysis was performed by DNA content quantification. The cells were fixed with 70% ethanol and stained with propidium iodide (50 μg/ml) staining. The stained cells were analyzed by FACScalibur (BD Bioscience). For the BrdU incorporation assay and mitochondrial membrane potential detection, the BrdU Flow Kit and JC-1 staining kit (both from BD Bioscience) were used, respectively, following the instruction manual. Stained cells were analyzed by FACScalibur (BD Bioscience) and quantified by using CellQuest software (BD Bioscience).

The subject of series [3] is RPS27. As to the kind of experiment: Specificity of RPS27L siRNA, RT-PCR of RPS27. As to conditions: HCT116 cells transfected with siRNA, then VP16 (10 μM). As to the method:
as §1, §2

The subject of series [4] is RPS27L protein. As to the kind of experiment: Western blot of RPS27L protein levels in HCT116 cells. The settings on record: ADR (1 μM), 5-FU (375 μM), nutlin-3 (10 μM). As to the method: (§4) To investigate whether the p53-induced increase in RPS27L mRNA also gives rise to the increased protein levels, immunoblot analysis of p53 wild-type and p53 null HCT116 cells treated with ADR, 5-FU or nutlin-3, a small molecule MDM2 antagonist that directly activates p53 (Vassilev, L. T., Vu, B. T., et al. (2004) “In vivo activation of the p53 pathway by small-molecule antagonists of MDM2” Science, vol. 303, p. 844-848) was performed. […] To extend this observations to other cell lines and to other p53 stimuli, U2OS (human osteosarcoma cell line) and SH-SY5Y (human neuroblastoma cell line) cells (p53 wild type) as well as Saos-2 cells (human osteosarcoma cell line, p53-deficient) were treated with ADR, etoposide phosphate (VP16®) and 5-FU (FIG. 2B). […] Obviously, 5-FU treatment activates a posttranslational mechanism that causes RPS27L protein downregulation in spite of the increased mRNA expression.
(§5) Cells were harvested and lysed with RIPA buffer (50 mM Tris-HCl, pH7.4, 1 mM EDTA, 150 mM NaCl, 1% Nonidet P-40, 0.5% sodium deoxycholate and proteinase inhibitors). The lysates were clarified by centrifugation at 16,000×g for 15 minutes at 4° C. Protein concentrations were determined with the Bradford Protein Assay Kit (Bio-Rad). 20-50 μg protein samples were separated by SDS-PAGE, transferred onto an Immobilon membrane (Millipore) and blotted with antibodies. Anti-p53 and anti-p21 antibodies were from Santa Cruz; anti-MDM2 and anti-Puma antibodies were from Merck. The rabbit polyconal antibody to RPS27L was raised against a 14 amino acid peptide from human RPS27L (SEQ ID NO: 2: LHPSLEEEKKKHKK).

Series [5] deals with p53 and p21. As to the kind of experiment: Western blot of p53 and p21 protein levels in HCT116 cells. As to conditions: ADR (1 μM), 5-FU (375 μM), nutlin-3 (10 μM). The procedure: as §4, §5
The test system of series [6] is RPS27L protein. As to the kind of experiment: Western blot of RPS27L protein in U2OS, SH-SY5Y and Saos-2 cells. As to conditions: U2OS and SH-SY5Y (p53 wild type), Saos-2 (p53-deficient); VP16 (10 μM), ADR (1 μM), 5-FU (375 μM). As to the method: as §4, §5
Series [7] concerns RPS27L mRNA. As to the kind of experiment: RT-PCR of RPS27L mRNA after drug treatment of HCT116 cells. The settings on record: p53 wild-type HCT116 cells; ADR (1 μM) or 5-FU (375 μM); not in p53 null cells.
Source text: FIG. 1A depicts the microarray analysis showing a set of genes whose expression was induced by the DNA damaging agents adriamycin (ADR) and 5-fluorouracil (5-FU) in p53 wild-type HCT116 cells (human colorectal carcinoma cell line containing wild type p53) but not in the p53 null counterpart. In both treatments, RPS27L, together with bona fide p53 targets such as cdkn1a (encodes p21), Pmaid (encodes Noxa) and ccd3 (encodes Puma), was unregulated in a p53-dependent manner. To validate the microarray data, RT-PCR analysis was performed (FIG. 1B).
The human colon carcinoma cell line HCT116 and its p53 knock-out derivate cells were kindly provided by Dr. Bert Vogelstein. HCT116 cells can also be purchased under the ATCC number: CCL 247. The human osteosarcoma cell lines U2OS and Saos-2 can be purchased under the following ATCC numbers: U2OS, ATCC HTB-96; Saos-2, ATCC HTB-85 and SH-SY5Y, ATCC CRL-2266. Cells were grown in DMEM supplemented with 10% fetal bovine serum and penicillin-streptomycin (Invitrogen). Adriamycin, etoposide phosphate (VP16®) and 5-fluorouracil were purchased from Sigma-Aldrich.
as §2

In series [8] the test system is HCT116 cells. As to the kind of experiment: JC-1 staining, mitochondrial membrane potential by flow cytometry. As to conditions: RPS27L shRNA HCT116 cells, ADR treatment. The procedure:
To further define the nature of this cell death response the inventors used another assay, namely flow cytometric detection of cells stained with JC-1. The JC-1-staining identifies cell death events as a result of loss of mitochondria membrane potential (ΔΨm).
as §3

For series [9], the system named is HCT116 cells. As to the kind of experiment: γ-H2AX focus formation, immunofluorescence and confocal microscopy. The procedure: A deficient DNA damage checkpoint is expected to increase DNA damage. γ-H2AX foci are considered to be sensitive indicators of double strand breaks (DSB). We looked for γ-H2AX focus formation after etoposide phosphate (VP16®) treatment and monitored the reversibility post-VP16 washout.
The cells were seeded in 4-well or 8-well culture slides. After treatment, cells were fixed with 3.7% paraformaldehyde in PBS and permeabilized with 0.2% Triton-X100. Cells were sequentially incubated with primary antibodies (see above under “Protein Analysis and Generation of Anti-RPS27L Antibody”) and Alexa Fluor 488 or Alexa Fluor 546-conjugated secondary antibodies (Invitrogen) for 1 hour each and mounted in Fluorsave (Merck) mounting medium. DRAQ5 (Biostats, UK) was diluted in mounting medium for nuclear staining. The stained cells were examined by Zeiss LSM510 confocal microscopy.

The results in this text go back to patent publication US20090137517A1, “SENSITIZING A CELL TO CANCER TREATMENT BY MODULATING THE ACTIVITY OF A NUCLEIC ACID ENCODING RPS27L PROTEIN” (Agency for Science, Technology and Research, priority 2006, published 2009).

“RPS27L siRNA: siRNA oligo targeting RPS27L, SEQ ID NO: 1: ggttgctacaagattacta, purchased from Proligo (GGTTGCTACAAGATTACTA; listed as DNA, chemistry not given here)”: the “RPS27L expression (mRNA)” value in series [1] is given as “nearly completely ablated”. In addition, the “cell death (sub-G1 DNA content)” value in series [2] (HCT116 cells, transient siRNA transfection, then ADR (1 μM) 24 h) is reported as “marked increase in cell death”; in series [2] (HCT116 cells, transient siRNA transfection, then etoposide phosphate (VP16) (10 μM) 24 h) it was “marked increase in cell death”; in [2] (p53 null HCT116 cells, transient siRNA transfection, then ADR or VP16) it was “not in p53 null counterparts”. In [3], the “effect on closely-related RPS27 (mRNA)” value was “no effect”.
Regarding `O=c1[nH]cc(F)c(=O)[nH]1` [5-FU, 5-fluorouracil], the RPS27L protein level entry in [4] is given as “downregulated”; in [6], “downregulation”. Further, the “p53 and p21 protein” value in series [5] is given as “increased p21 protein expression”. In [7], the “RPS27L mRNA” value was “induced”. For the same compound, the “cell cycle and apoptosis response” value in series [2] (HCT116 p53+/+ and p53−/−, ADR (1 μM) or 5-FU (375 μM) for 48 h) is “p53-dependent apoptosis”.
For the compound “RPS27L shRNA: short hairpin of SEQ ID NO: 1 to deplete RPS27L, stably expressed in HCT116 from pSIREN-RetroQ retroviral vector (guide GGTTGCTACAAGATTACTA)”, the “percentage of cells with lower membrane potential (ΔΨm)” value in series [8] amounted to 33.5%. Further, the “cell death (sub-G1 DNA content)” value in series [2] (p53 wild-type HCT116 stably expressing RPS27L shRNA, ADR (1 μM) 48 h) is on record as “marked cell death”.
For `COc1cc([C@@H]2c3cc4c(cc3[C@@H](O[C@@H]3O[C@@H]5CO[C@@H](C)O[C@H]5[C@H](O)[C@H]3O)[C@H]3COC(=O)[C@H]23)OCO4)cc(OC)c1OP(=O)(O)O` [etoposide phosphate (VP16®), etoposide phosphate], the “DSB foci (γ-H2AX staining) after treatment” value in series [9] (HCT116 cells, VP16 (20 μM)) is “prominent DSB foci”. Moreover, the “γ-H2AX staining after VP16 removal” value is recorded as “sustained γ-H2AX staining” in series [9] (RPS27L-depleted HCT116 cells, after VP16 removal) and “almost undetectable” in [9] (control HCT116 cells, by 16 hours after VP16 removal). The RPS27L protein level entry in series [6] is given as “p53-dependent upregulation of RPS27L protein”.
Turning to `COc1ccc(C2=N[C@@H](c3ccc(Cl)cc3)[C@@H](c3ccc(Cl)cc3)N2C(=O)N2CCNC(=O)C2)c(OC(C)C)c1` [nutlin-3], the RPS27L protein level entry in series [4] is listed as “increased RPS27L protein levels”. For the same compound, in series [5], the “p53 and p21 protein” value is “accumulation of p53 and p21”.
